Experimental data from patent US10144706B2 (BRISTOL-MYERS SQUIBB COMPANY, priority 2016, dated 2018).
Where a name gives a salt, the structure may show the parent alone.

Biological target: T1, PD-1/PD-L1 interaction (PD-1-Ig / PD-L1-His) (Homo sapiens, UniProt Q9NZQ7)
T1 construct: hPDL1(18-239)-TVMV-His; TVMV protease site linker (C); made in house; host or cells: HEK293T
Assay: PD-1/PD-L1 Homogenous Time-Resolved Fluorescence (HTRF) binding assay
Conditions: IC50 range class; PD-L1-His 10 nM, PD-1-Ig 20 nM; read-out: Range or IC50
Procedure, shortened: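 HTRF detection used 1 nM europium-cryptate anti-Ig and 20 nM APC anti-His. Compounds first saw 10 nM PD-L1-His for 15 min, and 20 nM PD-1-Ig was then added for another 15 min. Buffer was dPBS plus 0.1% BSA and 0.05% Tween-20. All concentrations are final.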

T1 sequence (Q9NZQ7 with tags, fused parts or gaps): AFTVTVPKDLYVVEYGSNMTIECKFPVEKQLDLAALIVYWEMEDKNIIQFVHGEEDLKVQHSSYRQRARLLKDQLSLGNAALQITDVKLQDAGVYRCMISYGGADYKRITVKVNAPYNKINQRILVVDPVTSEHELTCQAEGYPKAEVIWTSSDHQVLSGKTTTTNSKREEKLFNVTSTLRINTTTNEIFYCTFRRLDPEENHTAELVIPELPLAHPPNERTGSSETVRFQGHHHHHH

Row | IC50 [nM] | Structure (SMILES)
1 | 0.04 to 20 | Cc1c(COc2cc(OCc3cncc(C#N)c3)c(CN(C)[C@@H](CCO)C(=O)O)cc2Cl)cccc1-c1cccc(COc2cc(OCc3cncc(C#N)c3)c(CN(C)[C@@H](CCO)C(=O)O)cc2Cl)c1C [Example 40760]
2 | 0.04 to 20 | Cc1c(COc2cc(OCc3cncc(C#N)c3)c(CNC[C@H](O)C(=O)O)cc2Cl)cccc1-c1cccc(COc2cc(OCc3cncc(C#N)c3)c(CNC[C@H](O)C(=O)O)cc2Cl)c1C [Example 40220]
3 | 20.1 to 90 | N#Cc1cncc(COc2cc(OCc3cccc(-c4cccc(COc5cc(OCc6cncc(C#N)c6)c(CN6CCCC[C@H]6C(=O)O)cc5Cl)c4)c3)c(Cl)cc2CO)c1 [Example 50020]
4 | 90.1 to 1000 | Cc1c(OCCCN[C@@H](CO)C(=O)O)cccc1-c1cccc(OCCCN2CC[C@@H](O)C2)c1C [Example 2012, (3-((3′-(3-((R)-3-hydroxypyrrolidin-1-yl)propoxy)-2,2′-dimethyl-[1,1′-biphenyl]-3-yl)oxy)propyl)-L-serine]
5 | 0.04 to 20 | Cc1c(COc2cc(OCc3cc(F)cc(F)c3)c(CNC(C)(CO)CO)cc2Cl)cccc1-c1cccc(COc2cc(OCc3cc(F)cc(F)c3)c(CNC(C)(CO)CO)cc2Cl)c1C [Example 5007, 2,2′-((((((2,2′-dimethyl-[1,1′-biphenyl]-3,3′-diyl)bis(methylene))bis(oxy))bis(5-chloro-2-((3,5-difluorobenzyl)oxy)-4,1-phenylene))bis(methylene))bis(azanediyl))bis(2-methylpropane-1,3-diol)]
6 | 0.04 to 20 | Cc1cc(OCc2cccc(-c3cccc(COc4cc(OCc5cncc(C#N)c5)c(CN(C)[C@@H](CCO)C(=O)O)cc4Cl)c3C)c2C)c(Cl)cc1CN(C)[C@@H](CCO)C(=O)O [Example 5505, N-(4-((3′-((4-((((S)-1-carboxy-3-hydroxypropyl)(methyl)amino)methyl)-2-chloro-5-((5-cyanopyridin-3-yl)methoxy)phenoxy)methyl)-2,2′-dimethyl-[1,1′-biphenyl]-3-yl)methoxy)-5-chloro-2-methylbenzyl)-N-methyl-L-homoserine]
7 | 0.04 to 20 | N#Cc1cncc(COc2cc(OCc3cccc(-c4cccc(COc5cc(O)c(CNC(CCO)C(=O)O)cc5Cl)c4Cl)c3Cl)c(Cl)cc2CNC(CCO)C(=O)O)c1 (stereo not shown) [Example 41180]
8 | 20.1 to 90 | CC(=O)NCCNCCCOc1cccc(-c2cccc(OCCCN3CC[C@@H](O)C3)c2C)c1C [Example 2048, (R)—N-(2-((3-((3′-(3-(3-hydroxypyrrolidin-1-yl)propoxy)-2,2′-dimethyl-[1,1′-biphenyl]-3-yl)oxy)propyl)amino)ethyl)acetamide]
9 | 90.1 to 1000 | Cc1c(OCCCN2CCC(N(C)C)CC2)cccc1-c1cccc(OCCCN2CC[C@@H](O)C2)c1C [Example 2070, (R)-1-(3-((3′-(3-(4-(dimethylamino)piperidin-1-yl)propoxy)-2,2′-dimethyl-[1,1′-biphenyl]-3-yl)oxy)propyl)pyrrolidin-3-ol]
10 | 20.1 to 90 | Cc1c(OCCCNCCCO)cccc1-c1cccc(OCCCN2CC[C@@H](O)C2)c1C [Example 2042, (R)-1-(3-((3′-(3-((3-hydroxypropyl)amino)propoxy)-2,2′-dimethyl-[1,1′-biphenyl]-3-yl)oxy)propyl)pyrrolidin-3-ol]
11 | 1000 to 10000 | Cc1c(OCCCN2CC[C@@H](O)C2)cccc1-c1cccc(OCCCN2CC(O)C[C@H]2C(=O)O)c1C (stereo in doubt) [Example 2051, (2S,4R)-4-hydroxy-1-(3-((3′-(3-((R)-3-hydroxypyrrolidin-1-yl)propoxy)-2,2′-dimethyl-[1,1′-biphenyl]-3-yl)oxy)propyl)pyrrolidine-2-carboxylic acid]
12 | 0.04 to 20 | Cc1c(COc2cc(OCc3cncc(C#N)c3)c(CNCC(O)CC(=O)O)cc2Cl)cccc1-c1cccc(COc2cc(OCc3cncc(C#N)c3)c(CNCC(O)CC(=O)O)cc2Cl)c1C (stereo not shown) [Example 40230]
13 | 0.04 to 20 | Cc1cc(OCc2cccc(-c3cccc(COc4cc(C)c(CNC(C)(CO)CO)cc4C)c3C)c2C)c(C)cc1CNC(C)(CO)CO [Example 5001, 2,2′-((((((2,2′-dimethyl-[1,1′-biphenyl]-3,3′-diyl)bis(methylene))bis(oxy))bis(2,5-dimethyl-4,1-phenylene))bis(methylene))bis(azanediyl))bis(2-methylpropane-1,3-diol)]
14 | 0.04 to 20 | Cc1c(COc2cc(OCc3cncc(C#N)c3)c(CN[C@H](C(=O)O)c3ccccc3)cc2Cl)cccc1-c1cccc(COc2cc(OCc3cncc(C#N)c3)c(CN[C@H](C(=O)O)c3ccccc3)cc2Cl)c1C [Example 40360]
15 | 20.1 to 90 | Cc1c(OCCCN2CC[C@@H](O)C2)cccc1-c1cccc(OCCCN2CCC(O)(c3ccccc3)C2)c1C (stereo partly drawn) [Example 3028, 1-(3-((3′-(3-((R)-3-hydroxypyrrolidin-1-yl)propoxy)-2,2′-dimethyl-[1,1′-biphenyl]-3-yl)oxy)propyl)-3-phenylpyrrolidin-3-ol, 2 TFA]
16 | 0.04 to 20 | Cc1c(COc2cc(OCc3cncc(C#N)c3)c(CNC(C)CC(=O)O)cc2Cl)cccc1-c1cccc(COc2cc(OCc3cncc(C#N)c3)c(CNC(C)CC(=O)O)cc2Cl)c1C (stereo not shown) [Example 40400]
17 | 20.1 to 90 | COC(=O)[C@](C)(CO)NCc1cc(Cl)c(OCc2cccc(-c3cccc(COc4cc(OCc5cncc(C#N)c5)c(CN[C@@](C)(CO)C(=O)OC)cc4Cl)c3C)c2C)cc1OCc1cncc(C#N)c1 [Example 40150]
18 | 0.04 to 20 | CC(=O)c1cc(Cl)c(OCc2cccc(-c3cccc(COc4cc(OCc5cncc(C#N)c5)c(CN[C@@](C)(CO)C(=O)O)cc4Cl)c3Cl)c2Cl)cc1OCc1cncc(C#N)c1 [Example 60080]
19 | 0.04 to 20 | Cc1c(OCCCN(C)C[C@H](O)CO)cccc1-c1cccc(OCCCN(C)C[C@H](O)CO)c1C [Example 2031, (2S,2′S)-3,3′-((((2,2′-dimethyl-[1,1′-biphenyl]-3,3′-diyl)bis(oxy))bis(propane-3,1-diyl))bis(methylazanediyl))bis(propane-1,2-diol)]
20 | 0.04 to 20 | CN1CCN(C(=O)c2cc(Cl)c(OCc3cccc(-c4cccc(COc5cc(OCc6cncc(C#N)c6)c(C(=O)N6CCN(C)CC6)cc5Cl)c4Cl)c3Cl)cc2OCc2cncc(C#N)c2)CC1 [Example 80030]
21 | 0.04 to 20 | Cc1c(COc2cc(OCc3cncc(C#N)c3)c(CN3CC(C(=O)O)C3)cc2Cl)cccc1-c1cccc(COc2cc(OCc3cncc(C#N)c3)c(CN3CC(C(=O)O)C3)cc2Cl)c1C [Example 40420]
22 | 0.04 to 20 | Cc1c(COc2cc(OCc3cncc(C#N)c3)c(CN3CCOC[C@@H]3C(=O)O)cc2Cl)cccc1-c1cccc(COc2cc(OCc3cncc(C#N)c3)c(CN3CCOC[C@@H]3C(=O)O)cc2Cl)c1C [Example 40370]
23 | 1000 to 10000 | N#Cc1cncc(COc2cc(OCc3cccc(-c4cccc(COc5cc(OCc6cncc(C#N)c6)c(C(=O)N6CCSCC6)cc5Cl)c4Cl)c3Cl)c(Cl)cc2C(=O)N2CCSCC2)c1 [Example 80220]
24 | 90.1 to 1000 | Cc1c(OCCCN2CCC[C@H](C(=O)O)C2)cccc1-c1cccc(OCCCN2CCC[C@H](C(=O)O)C2)c1C [Example 2082, (3S,3′S)-1,1′-(((2,2′-dimethyl-[1,1′-biphenyl]-3,3′-diyl)bis(oxy))bis(propane-3,1-diyl))bis(piperidine-3-carboxylic acid)]
25 | 90.1 to 1000 | Cc1c(OCCCN[C@H](CO)c2ccccc2)cccc1-c1cccc(OCCCN2CC[C@@H](O)C2)c1C [Example 2057, (R)-1-(3-((3′-(3-(((S)-2-hydroxy-1-phenylethyl)amino)propoxy)-2,2′-dimethyl-[1,1′-biphenyl]-3-yl)oxy)propyl)pyrrolidin-3-ol]
26 | 20.1 to 90 | Cc1c(COc2cc(OCc3cc(F)cc(F)c3)c(CN(C)[C@@](C)(CO)C(=O)O)cc2Cl)cccc1-c1cccc(COc2cc(OCc3cc(F)cc(F)c3)c(CN(C)[C@@](C)(CO)C(=O)O)cc2Cl)c1C [Example 5014, (2S,2′S)-2,2′-((((((2,2′-dimethyl-[1,1′-biphenyl]-3,3′-diyl)bis(methylene))bis(oxy))bis(5-chloro-2-((3,5-difluorobenzyl)oxy)-4,1-phenylene))bis(methylene))bis(methylazanediyl))bis(3-hydroxy-2-methylpropanoic acid)]
27 | 0.04 to 20 | Cc1c(COc2cc(OCc3cncc(C#N)c3)c(CN[C@H](C(=O)O)[C@@H](C)O)cc2Cl)cccc1-c1cccc(COc2cc(OCc3cncc(C#N)c3)c(CN[C@H](C(=O)O)[C@@H](C)O)cc2Cl)c1C [Example 41100]
28 | 0.04 to 20 | Cc1c(COc2cc(OCc3cncc(C#N)c3)c(Cl)cc2Cl)cccc1-c1cccc(COc2cc(OCc3cncc(C#N)c3)c(CN[C@](C)(CO)C(=O)O)cc2Cl)c1C [Example 70020]
29 | 20.1 to 90 | Cc1c(OCCCN2CCCC(CO)C2)cccc1-c1cccc(OCCCN2CC[C@@H](O)C2)c1C (mixture of isomers) [Example 2003, (3R)-1-(3-((3′-(3-(3-(hydroxymethyl)piperidin-1-yl)propoxy)-2,2′-dimethyl-[1,1′-biphenyl]-3-yl)oxy)propyl)pyrrolidin-3-ol]

Same assay, conditions: numeric IC50; PD-L1-His 10 nM, PD-1-Ig 20 nM; read-out: Range or IC50

Row | IC50 [nM] | Structure (SMILES)
30 | 81 | Cc1c(OCCCNC[C@H](O)c2ccccc2)cccc1-c1cccc(OCCCN2CC[C@@H](O)C2)c1C [Example 2112, (R)-1-(3-((3′-(3-(((R)-2-hydroxy-2-phenylethyl)amino)propoxy)-2,2′-dimethyl-[1,1′-biphenyl]-3-yl)oxy)propyl)pyrrolidin-3-ol]
31 | 1.1 | Cc1c(COc2cc(OCc3cncc(C#N)c3)c(CNC(C)(CO)C(=O)O)cc2Cl)cccc1-c1cccc(COc2cc(OCc3cncc(C#N)c3)c(CNC(C)(CO)C(=O)O)cc2Cl)c1C (stereo not shown) [Example 40210]
